Data published in US20110257146A1, “Method of Treating Kcnq Related Disorders Using Organozinc Compounds” (The johns Hopkins University, priority 2006, published 2011).

Columns and labels:
KCNQ2(Y284C) = target: T1, KCNQ2(Y284C) (Rattus norvegicus, UniProt O88943, Y284C); assay: Whole-cell recording of KCNQ2(Y284C) BFNC mutant in CHO cells; format: cell-based; details: 10 μM ZnPy
T1 construct: expressed in transfected cells; host or cells: CHO cells, transient
Procedure: (§1) FIG. 11. ZnPy effects on BFNC mutant channels expressed in CHO cells. A. whole-cell currents of KCNQ2(R207W), KCNQ2(Y284C), and KCNQ2(A306T) were recorded in the absence (left) and presence (right) of 10 μM ZnPy, Vh was −80 mV, in 10 mV voltage steps from −70 mV to +50 mV. B. a histogram plotting potentiation effects on KCNQ2 wild type (wt) and BFNC mutants (R207W, Y284C and […]) by ZnPy (filled box) and retigabine (open box) (n≧4, * p<0.001, ** p<0.05).
(§2) Mutagenesis—Starting from KCNQ cDNAs, the KCNQ2 point mutants were constructed by recombinant PCR and verified by sequencing.
Electrophysiological Recording—Standard whole-cell recording was used. Pipettes were pulled from borosilicate glass capillaries (TW150-4, World Precision Instruments, Sarasota, Fla.). When filled with the intracellular solution, the pipettes have resistances of […]. During the recording, constant perfusion of extracellular solution was maintained using a BPS perfusion system (ALA, Westbury, N.Y.). Pipette solution contained (mM): KCl 145, MgCl2 1, EGTA 5, HEPES 10, MgATP 5 (pH 7.3); extracellular solution contained (mM): NaCl 140, KCl 3, CaCl2 2, MgCl2 1.5, HEPES 10, glucose 10 (pH 7.4). Current and voltage were recorded using an Axopatch-200A amplifier, filtered at 1 kHz and digitized using a DigiData 1322A with pClamp 9.2 software (Axon Instruments, Foster City, Calif.). […]

KCNQ2(A306T) = target: T2, KCNQ2(A306T) (Rattus norvegicus, UniProt O88943, A306T); assay: Whole-cell recording of KCNQ2(A306T) mutant in CHO cells; format: cell-based
T2 construct: expressed in transfected cells; host or cells: CHO cells
Procedure: FIG. 9. KCNQ2 point mutants selectively lose ZnPy sensitivity. […] Each mutation site was indicated based on the predicted transmembrane regions. Dashed line indicates the potentiation level of wt KCNQ2 channel in the absence of ZnPy. […] C. Modeling of the S5-pore-S6 region of KCNQ2.
as §1, §2
Electrophysiological Recording—Standard whole-cell recording was used. Pipettes were pulled from borosilicate glass capillaries (TW150-4, World Precision Instruments, Sarasota, Fla.). When filled with the intracellular solution, the pipettes have resistances of […]. During the recording, constant perfusion of extracellular solution was maintained using a BPS perfusion system (ALA, Westbury, N.Y.). Pipette solution contained (mM): KCl 145, MgCl2 1, EGTA 5, HEPES 10, MgATP 5 (pH 7.3); extracellular solution contained (mM): NaCl 140, KCl 3, CaCl2 2, MgCl2 1.5, HEPES 10, glucose 10 (pH 7.4). Current and voltage were recorded using an Axopatch-200A amplifier, filtered at 1 kHz and digitized using a DigiData 1322A with pClamp 9.2 software (Axon Instruments, Foster City, Calif.). Series resistance compensation was also used and set to 60-80%.

S=c1ccccn1[O][Zn][O]n1ccccc1=S [ZnPy, Zinc Pyrithione]
fold current increase (KCNQ2(Y284C)): more than 3 fold | effectiveness of current increase (KCNQ2(A306T); 10 μM ZnPy): less effective | hyperpolarizing shift of V1/2 (KCNQ2(A306T); ZnPy): 24.1±3.1 mV | potentiation in Gmax (KCNQ2(A306T); ZnPy): little potentiation in Gmax
